# From patent US12653862B2, “Anti-senescence compounds and uses thereof” (CLEARA BIOTECH B.V., priority 2020, dated 2026)
# Tests used:
# [1] = system: WT colon and tumor progression (TPO) organoids; experiment: Cell viability of WT colon and tumor progression (TPO) organoids; format: cell-based; conditions: increasing concentrations, measured 5 days later
# Description: (§1) Organoids were grown at 37° C. and 5% CO2 in a humidified incubator. All organoids were cultured in matrigel (Corning) droplets in advanced DMEM/F12 (Lonza) supplemented with 1% glutamax, 1% Penicillin/Streptomycin, 1% (10 mM) HEPES, 10% Noggin conditioned medium, 2% B-27 (50×; (Thermo/Life Technologies), N-acetylcysteine ((Sigma-Aldrich, 1.25 mM)), A83-01 (Tocris, 500 nM) and SB203580 (Invitrogen/Life Technologies, 3 μM). To perform viability and apoptosis assays, the organoids were passaged through resuspension in ice-cold medium, followed by centrifugation in 15 ml tubes at 4° C. The resulting pellet was trypsinized for 5 minutes at 37° C. to obtain single cells and subsequently washed twice with advanced DMEM/F12 media. These cells were then resuspended in Matrigel and plated in 96-well plates in 5 ul droplets. 100 ul fresh medium was added to the wells 15 minutes later. Peptide and chemotherapy treatment was added to the organoids 2 days after plating.
# [2] = system: CRC29 colorectal cancer organoid line; experiment: Bioluminescence of luciferase-expressing CRC29 transplanted in the caecum of immunodeficient mice; format: in vivo; conditions: 3 doses, imaged two days after last dose, vs PBS
# Description: (§2) Mouse experiments were performed after approval from the Dutch animal ethics committee. For these experiments male NOD.Cg-Prkdc^scid Il2rg^tmlWjl/SzJ/J mice (Charles River) were employed. Human CRC29 colorectal cancer organoids containing firefly luciferase were implanted into the caecum, resulting in the formation of a primary tumor at this site. The implantation was performed under ketamine and dexmedetomidine anaesthesia. In addition, the animals received carpofen 30 min before surgery and the day after. 14 days after transplantation, the mice were sedated using isoflurane and imaged under the BioSpace Imager. Subsequently, The animals were treated with either PBS or with ′5-Fluorouracil (5-FU) at a dose of 50 mg/kg via i.p. injection. The first dose of CL04183 (2.5 mg/kg) was administered via i.v. injection 1 week after 5-FU treatment and this treatment was repeated 2 and 4 days later. 4 weeks after transplantation, the mice were imaged again to determine treatment effect and subsequently sacrificed. All organs were harvested and imaged under the BioSpace Imager again and the luciferase signal was quantified using the M3 vision software.
# [3] = Grey hair in naturally aged mice; format: in vivo; conditions: 24-month old C57BL/6J mice, 3 doses i.v., 4 weeks after first treatment, vs PBS
# Text: 24-month old C57BL/6J mice were photographed before receiving 3 doses of either PBS or CL04183 (SEQ ID NO: 55) through i.v. injection. 4 weeks after the first treatment the mice were photographed again.
# [4] = Peptide stability in solution; format: physicochemical
# Description: Both peptides were dissolved in H2O and kept at room temperature. The peptide concentration was determined for the indicated time points.
# [5] = system: CRC29 colorectal cancer organoid line; experiment: CRC29 metastasis in liver and lung, human nucleoli staining; format: in vivo, mice; conditions: 3 doses, vs PBS
# Description: as §2
# Liver and lung paraffin sections were rehydrated in decreasing concentrations of ethanol before being washed in TBS and boiled for 20 minutes in 10 mM sodium citrate buffer (PH6) for antigen unmasking. […]
# RPE1 cells = experiment: Senescent vs ctrl human RPE1 cells; format: cell-based; conditions: vs FOXO4-DRI (CL03001) within one experiment
# Description: Human IMR90, WI38 and RPE cells were grown in Dulbecco's Modified Eagle's Medium (DMEM; Lonza) containing 10% FCS and 1% pen/strep at 37° C. with 3.0% 02 and 5.0% CO2. To induce senescence, cells were irradiated with 10Gy ionizing radiation (Gammacell 1000) and were left for a minimum of 10 days to become senescent.
# To perform viability and apoptosis assays, cells were split into 96-well plates and treated with peptides 2 days later. Non-senescent and cancer cells were plated 1500 cells/well, while senescent cells were plated at 8.000 cells/well.
# [6] = system: CRC29 colorectal cancer organoids; experiment: Apoptosis and viability in patient-derived colorectal cancer organoid line CRC29; format: cell-based, Human
# Description: as §1
# A Live/dead assay was performed on both larger organoids 3 days after peptide and/or chemotherapy treatment, or on organoids that were treated as single cells and allowed to grow out for 2 weeks before the assay was performed. […] The organoids were then imaged on a Zeiss Cell Observer microscope and the signal was quantified using FIJI. […]
# [7] = system: NRAS mutated and BRAF mutated melanoma; experiment: Efficacy against melanoma; format: cell-based
# [8] = system: triple negative breast cancer lines; experiment: MTS cell viability in human breast cancer cell lines; format: cell-based; conditions: increasing concentrations, 2 days
# CRC29 lung metastases = experiment: TUNEL assay on CRC29 lung metastases; format: in vivo, mice; conditions: vs PBS
# Description: as §2
# A TUNEL assay was performed on lung metastases to determine apoptosis induction after treatment. […] Images were acquired using a LSM880 confocal microscope (Zeiss) and the percentage of TUNEL-positive cells was analysed using FIJI.
sequence,measurement,setting,value
AKIEAAILDAFSQNWRKRRRRQRRKKRG [CL04183],"cell viability, sensitivity of organoids with colorectal cancer associated mutations",[1],"sensitizes to FOXO4-based peptides, dependent on p53"
same,luciferase-expressing colorectal cancer cells (bioluminescence),[2],reduces luciferase-expressing colorectal cancer cells in vivo
same,grey hair,[3],reduces grey hair
same,stability in solution,[4],superior stability
same,colorectal cancer metastasis in liver and lung,[5],reduces colorectal cancer metastasis in liver and lung
same,selectivity and potency in senescent vs ctrl cells,RPE1 cells,superior selectivity and potency
same,apoptosis induction,[6],potently induces apoptosis
same,efficacy against melanoma,[7],efficacy against NRAS mutated and BRAF mutated melanoma
same,"sensitivity of breast cancer cell lines (cell viability, MTS)",[8],correlating with CL04183 (SEQ ID NO: 55) sensitivity
same,apoptosis in metastatic cancer cells (TUNEL positive cancer cells),CRC29 lung metastases,induces apoptosis in metastatic cancer cells in vivo
